For experiment [1], the target named is T1, human MC4-R (Homo sapiens, UniProt P32245).
T1 construct: expressed in transfected cells; host or cells: HEK293 T-REx (tetracycline-regulated, Invitrogen); cell line from Palatin Technologies with license from the University of Michigan
As to the kind of experiment: Competitive inhibition binding assay with [I125]-NDP-α-MSH or Eu-NDP-α-MSH, membranes of HEK-293 cells expressing recombinant hMC4-R. Here is the method:
A competitive inhibition binding assay was performed using membrane homogenates prepared from HEK-293 cells that express recombinant hMC4-R, hMC3-R, or hMC5-R, and from B-16 mouse melanoma cells (containing endogenous MC1-R). In some instances, HEK-293 cells that express recombinant hMC1-R were employed. In the examples that follow, all MC3-R, MC4-R and MC5-R values are for human recombinant receptors. […] After incubation for 60 minutes at 37° C., the assay mixture was filtered and the membranes washed three times with ice-cold buffer. Filters were dried and counted in a gamma counter for bound radioactivity. […] Maximal specific binding (100%) was defined as the difference in radioactivity (cpm) bound to cell membranes in the absence and presence of 1 μM NDP-α-MSH. […] Ki values for test peptides of the present invention were determined using Graph-Pad Prism® curve-fitting software.
Alternatively, a competitive inhibition binding assay was performed employing Eu-NDP-α-MSH (PerkinElmer Life Sciences catalog No. AD0225) with determination by time-resolved fluorometry (TRF) of the lanthanide chelate. […] After incubation for 90 minutes at 37° C., the reaction was stopped by filtration over AcroWell 96-well filter plates (Pall Life Sciences). The filter plates were washed 4 times with 200 μL of ice-cold phosphate-buffered saline. DELFIA Enhancement solution (PerkinElmer Life Sciences) was added to each well. […] Each assay was conducted in duplicate and mean values were utilized. Ki values were determined by curve-fitting with Graph-Pad Prism® software using a one-site fixed-slope competition binding model.

The target of experiment [2] is T1, human MC4-R. As to the kind of experiment: cAMP functional assay in HEK-293 T-REx cells expressing human MC4-R, induced with doxycycline 0.1 ng/mL (low density). Particulars: doxycycline 0.1 ng/mL, averages of all comparable assays; for Emax: HEK293-T-REx, maximal cAMP stimulation, NDP-α-MSH = 100%, read-out: Emax; for EC50: human MC4-R cAMP assay, read-out: Ec50. It is filed as cell-based. The source says: A HEK293 cell line transfected with human MC4-R (from Palatin Technologies, US, with license from the University of Michigan) was used. The human MC4-R was introduced to HEK293 by using the T-REx™ System, Invitrogen. The T-REx™ System employs a tetracycline-regulated mammalian expression system that uses regulatory elements from the E. coli Tn10-encoded tetracycline (Tet) resistance operon. By use of the T-REx™ System, expression of the gene of interest, the human MC4-R gene, is repressed in the absence of tetracycline or doxycycline and induced in the presence of tetracycline or doxycycline (see T-REx™ System Manual, published by Invitrogen).
Cells were then counted and volume was adjusted to 5×10^4 cells per 200 μL.
The cells were then dispensed into 96-well plates (BD 353916) in 198 μL (about 5×10^4) cells/well and incubated for 10 minutes at 37° C. The compound to be tested was diluted with DMSO to a final concentration of 1 mM. Serial dilution was prepared in polypropylene removable 12-well library tube strips (VWR cat #83009-682). 120 μL of the 1 mM compound stock was pipetted in the second column on the plate.
2 μL of the standard, [Nle^4, D-Phe^7]alpha-Melanocyte Stimulating Hormone (NDP-α-MSH), or compound was added to the 96-well plate using the Janus robotic system. All assay samples were run in duplicate (i.e. each sample was in two low dox and two high dox plates, respectively). The plates were gently shaken and incubated for 15 minutes at 37° C. The reaction was stopped by adding 15 μL of lysis buffer per well and the plates were shakened for 30 minutes at room temperature.
Agonist stimulation of the MC4-R activates adenylate cyclase, which is an enzyme that catalyses the formation 3′,5′-cyclic adenosine monophosphate (cAMP) from adenosine triphosphate (ATP). […] Fluoresence ratios were then calculated as described in the CisBio HTRF kit, with GraphPad Prism software used to plot the change in fluorescence percent values versus cAMP concentration using the variable slope dose response curve and, based on calculated cAMP concentrations, to determine EC50 and Emax values. […]

Setting [3] is: human MC4-R, averages of all comparable assays, read-out: Ki.

Experimental findings from patent publication US20120077957A1, “Lactam-Bridged Melanocortin Receptor-Specific Peptides” (PALATIN TECHNOLOGIES, INC., priority 2009, published 2012) are described below.

Where two headings read alike, the source gives them in different places. Bridge positions count the residues as written; N and C are the ends. Square brackets hold non-standard residues; d marks the D form. Peptide text beside a SMILES is read from it. Orn = NCCC[C@H](N)C(=O)O

T1 sequence (P32245 whole entry): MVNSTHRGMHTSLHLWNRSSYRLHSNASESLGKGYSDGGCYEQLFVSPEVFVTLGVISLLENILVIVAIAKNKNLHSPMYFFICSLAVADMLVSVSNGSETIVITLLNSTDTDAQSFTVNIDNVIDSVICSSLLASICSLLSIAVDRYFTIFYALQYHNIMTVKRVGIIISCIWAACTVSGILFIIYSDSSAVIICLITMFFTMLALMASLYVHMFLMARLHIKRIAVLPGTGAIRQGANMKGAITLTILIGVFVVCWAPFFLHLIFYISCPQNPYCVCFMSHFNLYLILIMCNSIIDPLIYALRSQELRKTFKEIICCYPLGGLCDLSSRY

On to `CC(=O)N[C@@H](CCCNC(=N)N)C(=O)N[C@H]1CCCNC(=O)CC[C@@H](C(N)=O)NC(=O)[C@H](Cc2c[nH]c3ccccc23)NC(=O)[C@H](CCCNC(=N)N)NC(=O)[C@@H](Cc2ccccc2)NC(=O)[C@@H]2CCCN2C1=O` [No. 47, Ac-Arg-cyclo(Orn-Pro-D-Phe-Arg-Trp-Glu)-NH2] (Ac-R[Orn]P[dF]RWE-NH2; lactam 2-7), for which the Ki on human MC4-R [1] (setting [3]) is 5 nM. For the same molecule, at human MC4-R [2], the Emax worked out at 54% and the EC50 was 6 nM.

For `CC(=O)N[C@@H](CCCCN)C(=O)N[C@H]1CCCNC(=O)CC[C@@H](C(N)=O)NC(=O)[C@H](Cc2c[nH]c3ccccc23)NC(=O)[C@H](CCCNC(=N)N)NC(=O)[C@@H](Cc2ccccc2)NC(=O)[C@H](Cc2c[nH]cn2)NC1=O` [No. 40, Ac-Lys-cyclo(Orn-His-D-Phe-Arg-Trp-Glu)-NH2] (Ac-K[Orn]H[dF]RWE-NH2; lactam 2-7), the inhibition constant (Ki) at human MC4-R [1] is 3 nM. On human MC4-R [2], the Emax came to 114% and the EC50 amounted to 0.2 nM.

Consider `CC(=O)N[C@@H](CCCNC(=N)N)C(=O)N[C@H]1CC(=O)NCCCC[C@@H](C(=O)O)NC(=O)[C@H](Cc2c[nH]c3ccccc23)NC(=O)[C@H](CCCNC(=N)N)NC(=O)[C@@H](Cc2ccccc2)NC(=O)[C@H](COCc2ccccc2)NC1=O` [reference compound], for which the Ki on human MC4-R [1] (setting [3]) was 9 nM. Moreover, the EC50 at human MC4-R [2] came to 5 nM.

For the molecule `CC(=O)N[C@@H](CCCNC(=N)N)C(=O)N[C@H]1CCC(=O)NCCC[C@@H](C(=O)O)NC(=O)[C@H](Cc2c[nH]c3ccccc23)NC(=O)[C@H](CCCNC(=N)N)NC(=O)[C@@H](Cc2ccccc2)NC(=O)[C@H](COCc2ccccc2)NC1=O` [No. 17, Ac-Arg-cyclo(Glu-Ser(Bzl)-D-Phe-Arg-Trp-Orn)-OH], at human MC4-R [1] (setting [3]), the Ki stood at 6 nM. Also, on human MC4-R [2], the Emax was found to be 55% and the EC50 was found to be 2 nM.

In the case of `CC(=O)N[C@@H](CCCNC(=N)N)C(=O)N[C@H]1CCCNC(=O)CC[C@@H](C(N)=O)NC(=O)[C@H](Cc2c[nH]c3ccccc23)NC(=O)[C@H](CCCNC(=N)N)NC(=O)[C@@H](Cc2ccccc2)NC(=O)[C@H](C)NC1=O` [No. 41, Ac-Arg-cyclo(Orn-Ala-D-Phe-Arg-Trp-Glu)-NH2] (Ac-R[Orn]A[dF]RWE-NH2; lactam 2-7), the Ki at human MC4-R [1] (setting [3]) is 19 nM. Besides, at human MC4-R [2], the Emax stood at 52% and the EC50 came out at 7 nM.

For the molecule `CC(=O)N[C@@H](CCCCN)C(=O)N[C@H]1CC(=O)NCCCC[C@@H](C(N)=O)NC(=O)[C@H](Cc2c[nH]c3ccccc23)NC(=O)[C@H](CCCNC(=N)N)NC(=O)[C@@H](Cc2ccccc2)NC(=O)[C@H](Cc2c[nH]cn2)NC1=O` [reference compound] (Ac-KDH[dF]RWK-NH2; lactam 2-7), the Ki on human MC4-R [1] (setting [3]) stood at 9 nM. At human MC4-R [2], the Emax worked out at 85% and the EC50 came out at 5 nM.

`CC(=O)NCCC[C@@H]1NC(=O)[C@@H](NC(=O)[C@H](CCCNC(=N)N)NC(C)=O)CC(=O)NCCCC[C@@H](C(N)=O)NC(=O)[C@H](Cc2c[nH]c3ccccc23)NC(=O)[C@H](CCCNC(=N)N)NC(=O)[C@@H](Cc2ccccc2)NC1=O` [reference compound]: the Ki at human MC4-R [1] (setting [3]) amounted to 573 nM. Further, the Emax at human MC4-R [2] stood at 62%.

For `CC(=O)N[C@@H](CCCNC(=N)N)C(=O)N[C@H]1CC(=O)NCCCC[C@@H](C(N)=O)NC(=O)[C@H](Cc2c[nH]c3ccccc23)NC(=O)[C@H](CCCNC(=N)N)NC(=O)[C@@H](Cc2ccccc2)NC(=O)[C@H](C)NC1=O` [reference compound] (Ac-RDA[dF]RWK-NH2; lactam 2-7), the Ki at human MC4-R [1] (setting [3]) worked out at 19 nM. In addition, on human MC4-R [2], the Emax was found to be 74% and the EC50 turned out to be 37 nM.

Regarding `CC(=O)NCC[C@@H]1NC(=O)[C@@H](NC(=O)[C@H](CCCNC(=N)N)NC(C)=O)CC(=O)NCCCC[C@@H](C(N)=O)NC(=O)[C@H](Cc2c[nH]c3ccccc23)NC(=O)[C@H](CCCNC(=N)N)NC(=O)[C@@H](Cc2ccccc2)NC1=O` [reference compound], the Ki on human MC4-R [1] was 33 nM. Moreover, on human MC4-R [2], the Emax was found to be 69%.

In general, Ki refers to the equilibrium dissociation constant of an inhibitor or competing ligand from its target. For orientation: Emax means the greatest response seen or fitted, relative to the assay's reference. Broadly, the EC50 is the concentration that produces a half-maximal response.
